This is an account of results in patent US10155742B2, “Halofuginol derivatives and their use in cosmetic and pharmaceutical compositions” (President and Fellows of Harvard College, priority 2012, dated 2018).

In test [1] the test system is Th17-driven multiple sclerosis model. The conditions noted are these: Sundrud et al. 2009; cited from earlier work.
The test system of the next test is P. falciparum (Dd2). The experiment in a line: In vitro P. falciparum viability assay with excess proline. It counts as cell-based, Plasmodium falciparum. The conditions noted are these: Dd2 strain in red blood cells, relative to unmodified RPMI, FIG. 23. The procedure: The activity of halofuginone and amodiaquine as inhibitors of P. falciparum growth was tested in erythrocytes in RPMI with or without excess amino acids as indicated, and IC50 values were normalized to IC50 values obtained under standard conditions using unmodified RPMI (numbers in bold). The absolute IC50 values for halofuginone and amodiaquine for RPMI are reported in parentheses. Fold amino acid indicated (e.g., “5×”) is relative to the concentration of the respective amino acid in RPMI. Fold concentration of D-Pro and L-Orn are relative to L-Pro.
In vitro potency against P. falciparum (DD2) was assessed using a modified version of the method of Plouffe and coworkers (Plouffe et al. Proc. Natl. Acad. Sci. USA 105:9059-64 (2008)). Parasites were cultured in the presence of drug in RPMI (Sigma) containing 4.16 mg/ml Albumax in a total volume of 50 μl at a 2.5% hematocrit and an initial parasitemia of 0.3% in black Greiner GNF clear-bottom plates. Cultures were incubated 72 hr at 37° C. under […], 4% CO2 and 3% O2. At the end of the incubation, SYBR green was added to a dilution of 1:10,000 and plates were stored overnight (or until ready to be read) at −80° C. Just before reading, plates were centrifuged at 700 rpm and fluorescence was read using 480 nm excitation and 530 nm emission frequencies. Compound concentrations that inhibit parasite replication reduce the fluorescence intensity of SYBR green bound to parasite DNA.

Test [2] has as its system CD4+ T cell, CD8+ T cell, and B220+ B cell activation. Conditions: from PCT/US08/09774; cited from earlier work.
For test [3], the system named is Th17 cell differentiation (primary murine CD4+ CD25- T cells). Conditions: from PCT/US08/09774; read-out: 50% inhibition of Th17 cell development; cited from earlier work.
Test [4] concerns prolyl-tRNA charging in the RRL system. The experiment in a line: tRNA charging in RRL (14C Pro or 35S Met incorporation into tRNA). Conditions: FIG. 2D.
Test [5] concerns the target T1, prolyl tRNA synthetase domain of human EPRS (ProRS) (Homo sapiens, UniProt P07814).
T1 sequence (P07814 998-1512 limits assumed): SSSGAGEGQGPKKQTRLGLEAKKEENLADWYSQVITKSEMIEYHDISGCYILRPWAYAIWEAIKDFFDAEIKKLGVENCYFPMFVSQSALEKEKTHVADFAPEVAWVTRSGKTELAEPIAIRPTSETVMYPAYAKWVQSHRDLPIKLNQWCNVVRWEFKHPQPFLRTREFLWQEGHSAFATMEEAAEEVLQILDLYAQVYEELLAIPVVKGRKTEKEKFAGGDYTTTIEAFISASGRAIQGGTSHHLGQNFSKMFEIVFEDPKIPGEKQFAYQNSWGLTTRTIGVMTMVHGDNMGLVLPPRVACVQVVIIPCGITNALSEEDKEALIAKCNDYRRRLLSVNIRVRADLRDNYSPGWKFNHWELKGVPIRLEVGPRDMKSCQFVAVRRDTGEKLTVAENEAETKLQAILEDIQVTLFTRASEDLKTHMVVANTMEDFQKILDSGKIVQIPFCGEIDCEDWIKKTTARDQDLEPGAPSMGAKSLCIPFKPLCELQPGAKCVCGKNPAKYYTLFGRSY
The conditions noted are these: 3H Pro incorporation into tRNA.
Protocol: Activity of the Prolyl tRNA synthetase domain of EPRS (ProRS) was measured as ^3H Pro incorporation into the charged tRNA pool. […] Purified enzyme was visualized as a single band by Laemmli gel electrophoresis/Coomassie staining.
Purified enzyme was visualized as a single band by Laemmli gel electrophoresis/Coomassie staining. […] In preliminary experiments, the assay was established to be linear over the time (6 min) and conditions used (30 degrees, 2 mM ATP, 1 μg/μl total tRNA purified from rabbit liver).
For the rapid, quantitative isolation of aminoacylated tRNA^pro from synthetase reaction mixtures, reactions were stopped with 100 μl of ice cold 20 mM MOPS pH6.2, 200 mM NaCl, 10 mM EDTA, 30% Glycerol and placed on ice. Samples were added to 15 μl of packed Mono Q HP beads (GE Healthcare) equilibrated in the same buffer. Samples were incubated with beads on ice for 10 min, beads were pelleted by 5 sec centrifugation in a tabletop microfuge and washed 3× 1 ml of wash buffer (20 mM MOPS pH6.2, 50 mM NaCl), and recovered pellets counted in a liquid scintillation counter. Background binding of ^3H Pro to beads (using reaction mix with either no enzyme added or no tRNA added) was negligible (20-40 cpm).

Test [6] concerns mouse embryo fibroblasts (MEFs). The experiment in a line: HF and proline effects on mouse embryo fibroblasts (gene expression, ECM protein production, protein synthesis). It is filed as cell-based. The procedure: A) Primary murine CD4^+ CD25^− T cells were activated through the T-cell receptor in Th17 polarizing conditions (Sundrud et al. Science 324:1334-8 (2009)) in the presence of either 10 nM MAZ1310 or HF and the following amino acid supplements: 10× concentration of essential (EAA) or non-essential (NEAA) amino acids mixtures (Biowhittaker or Invitrogen, respectively), or 10× concentrations (1 mM) of indicated individual amino acids. Data are presented as mean percentage of Th17 (IL-17+ IFNg−) cells +/−SD from triplicate wells. B) Th17 differentiation was assayed as described above, in the absence or presence of HF or borrelidin, with or without 1 mM threonine or proline supplementation. C) MEFs were treated with or without HF (50 nM) and/or proline (2 mM) for 4 hours (CHOP, S100A4) or 24 hours (ColIA1, Col1A2). mRNA expression was normalized to expression of TBP and is shown relative to untreated control. […] Confidence intervals (p-value) for the effect of HF alone versus HF+Pro were determined using a two-tailed Student's t test. Data are representative of two separate experiments. D) Cells were pre-incubated for 24 hours with HF and proline as indicated, and secretion of Type I procollagen was measured after 24 hours in conditioned medium of cells plated by Western blot and quantitated using Image J software (top panel). Total protein synthesis was measured as TCA-precipitable ^35S in a scintillation counter (bottom panel).
MEFs were incubated for 4 hours in HF with or without 2 mM proline, to measure new collagen production in conditioned medium. Cells were washed into fresh DMEM/0.2% FBS, and proline or HF re-added, and either conditioned medium (for Type I procollagen) or total cell lysate (for fibronectin, c-actin) and were harvested after 24 hours. Triplicate plates of cells for each condition were treated, harvested, and blotted in parallel. Protein levels were assayed by Western blot, detected using chemiluminescence, and film exposure was quantitated using Image J software.
For assays of HF and proline effects on fibroblasts, mouse embryo fibroblasts were grown in 10% FCS/DMEM. For studies of TGFβ signaling, ^35S methionine incorporation into total protein, and collagen production, cells were shifted into 0.2% FCS/DMEM 24 hours before the addition of HF or proline. For examination of protein expression and phosphorylation, cells were lysed in RIPA with 5 mM EDTA, 1× PhosStop (Roche), and 1× Complete protease inhibitor mix (Roche), and assayed by Western blot as described above. For analysis of gene expression, cells were lysed in Trizol (Invitrogen) and gene expression quantitated by quantitative RT-PCR using the Roche UPR Light-Cycler system.

The test system of the next test is dermal ECM deposition. Conditions: intraperitoneally, added to food, or applied locally; Pines et al. 2003; cited from earlier work.

Regarding `O=C(C[C@H]1NCCC[C@@H]1O)Cn1cnc2cc(Br)c(Cl)cc2c1=O` (racemic) [HF, 7-bromo-6-chloro-3-[3-(3-hydroxy-2-piperidinyl)-2-oxopropyl]-4(3H)-quinazolinone], in test [1], the development of disease entry is listed as “inhibits”. Also, the “fold increase of effective IC50 on addition of 5× proline” value in the test on P. falciparum (Dd2) was “roughly 7 fold”. The “concentration that generally inhibits CD4+ T cell, CD8+ T cell, and B220+ B cell activation” value in test [2] is 20 to 40 nM. In test [3], the IC50 was ~3 nM. Moreover, in test [4], the “incorporation of 14C-Pro into tRNA” value is reported as “inhibited”. In test [5], the “inhibition of ProRS activity” value is given as “inhibits”. In test [6] (24 hours treatment, FIG. 6D), the “production of secreted Type I procollagen and fibronectin” value is given as “dramatically inhibited”. In addition, in test [6] (MEFs, HF 50 nM, 4 or 24 hours, FIG. 6C), the “mRNA levels of Col1A1, Col1A2, and S100A4” value is given as “inhibits”. In addition, the “expression of mRNA encoding CHOP” value in test [6] (MEFs, HF 50 nM, 4 hours, FIG. 6C) is “stimulated”. Moreover, the “35S-methionine incorporation into total protein” value in test [6] (same doses as ECM protein inhibition, FIG. 6D) is recorded as “did not significantly change”. Besides, in the test with dermal ECM deposition, the “excess dermal ECM deposition” value is “reduces”.
